{"source": "patent US20170355743A1", "about": "“INSULIN RECEPTOR PARTIAL AGONISTS” (Merck Sharp & Dohme Corp., priority 2014, published 2017)", "tested_on": "C57BL/6NTac mice", "experiment": "Intraperitoneal Insulin Tolerance Test (IP-ITT)", "type": "in vivo", "conditions": "intraperitoneal injection, two doses per compound (Table 16), lean male C57BL/6NTac mice, 30 to 360 minutes after dose", "experimental": "Groups of N=6-8 animals per group were randomized by weight (average about 30 grams). Two days prior to study, the mice were conditioned to dosing with an intraperitoneal injection of 0.9% Sodium Chloride solution at 5 ml/kg dosing volume. On the morning of the study, food was removed two or four hours prior to the study. Blood glucose concentrations were determined at T=0 min (baseline) using a Glucometer. […] Blood glucose levels were determined from tail bleeds taken between 30 to 360 minutes after dose."}
{"substance": "B29,B29′-suberoyl-(insulin)2 [Compound B, reference compound]", "values": [{"measurement": "blood glucose profile at low versus high dose", "value": "increased glucose lowering potency"}]}
